Tests used:
[1] = Storage stability of staining compound solution in DMSO; type: physicochemical; settings: 10 ng/mL in DMSO, closed glass container, normal temperature, 1 month; rate of change of absorbance and fluorescence intensity
How it was run: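 Compounds held as 10 ng/mL DMSO solutions in closed glass containers at normal temperature for 1 month. Rates of change in absorbance and fluorescence intensity at a given wavelength versus start were scored: +++ <5%, ++ 5–15%, − >15%.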

[2] = Excitation and fluorescence emission wavelength measurement; type: physicochemical; set-up: Stokes shift (λem − λex): unit not given here; settings: aqueous solution: 10 mg/mL solution in DMSO diluted 500-fold with purified water
Description: It should be noted that the excitation wavelength and the fluorescence emission wavelength of the staining compound were determined by measuring an aqueous solution, which had been obtained by diluting 500-fold a 10 mg/mL solution of the staining compound in DMSO with purified water, with a fluorescence spectrophotometer FL 4500 manufactured by Hitachi High-Technologies Corporation.

[3] = tested on: Zebrafish juveniles; assay: In vivo labelling of Zebrafish juveniles with probe for biological specimen; set-up: key to Staining property: +++: stained; −: no stained; key to Fluorescence sensitivity: +++: strongly observed; ++: moderately observed; +: weakly observed; −: no stained; settings: 1 hour; for Site(s) to be labelled: 10 ng/mL in water, stereoscopic microscope; for Fluorescence sensitivity / Staining property: 10 ng/mL; for Fluorescence sensitivity: fluorescence intensity visually evaluated; for Staining property: visually evaluated
How it was run: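 Five zebrafish juveniles were immersed in distilled water containing staining compound at 10 ng/mL (DMSO solution) for 1 hour. They were then washed three times with Egg Water, immobilised in 3% methylcellulose and imaged by stereomicroscope. Staining and fluorescence intensity were scored visually on a +++ to − scale.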

| Compound | Excitation wavelength λex [2] [nm] | Fluorescence emission wavelength λem [2] [nm] | Stokes shift (λem − λex) [2] | Storage stability [1] | Site(s) to be labelled [3] | Fluorescence sensitivity [3] | Staining property [3] |
| --- | --- | --- | --- | --- | --- | --- | --- |
| O=C(O)CN1C(=O)/C(=C\c2cc(Br)c3c(c2)C2CCCC2N3Cc2ccccc2)SC1=S (stereo not shown) [Dye 116] | 486 | 606 | 120 | +++ (rates of change of the absorbance and the fluorescence intensity are less than 5%, and thus, the storage stability is highly excellent) | blood vessel, gallbladder, and gastrointestinal | ++ | +++ |
| CCN1c2ccc(/C=C3/SC(=S)N(CCC(=O)O)C3=O)cc2C2CCCC21 (stereo not shown) [Dye 123] | 564 | 651 | 87 | +++ (rates of change of the absorbance and the fluorescence intensity are less than 5%, and thus, the storage stability is highly excellent) | gallbladder and gastrointestinal tract | +++ | +++ |
| CCN1c2ccc(/C=C/c3sc4ccccc4[n+]3CC(=O)O)cc2C2CCCC21 (stereo not shown) [Dye 124] | 605 | 618 | 13 | +++ (rates of change of the absorbance and the fluorescence intensity are less than 5%, and thus, the storage stability is highly excellent) | nose | +++ | +++ |
| COc1ccc(N2c3ccc(/C=C4/SC(=S)N(CCC(=O)O)C4=O)cc3C3CCCC32)cc1 (stereo not shown) [Dye 127] | 564 | 651 | 87 | +++ (rates of change of the absorbance and the fluorescence intensity are less than 5%, and thus, the storage stability is highly excellent) | blood vessel, liver, and gastrointestinal tract | +++ | +++ |
| COc1ccc(N2c3ccc(/C=C4\C(=O)N(c5ccccc5)N=C4C(=O)O)cc3C3CCCC32)cc1 (stereo not shown) [Dye 128] | 530 | 690 | 160 | +++ (rates of change of the absorbance and the fluorescence intensity are less than 5%, and thus, the storage stability is highly excellent) | blood vessel, liver, and gastrointestinal tract | ++ | +++ |
| O=C(O)CCN1C(=O)/C(=C\c2ccc3c(c2)C2CCCC2N3c2ccccc2)SC1=S (stereo not shown) [Dye 129] | 522 | 611 | 89 | +++ (rates of change of the absorbance and the fluorescence intensity are less than 5%, and thus, the storage stability is highly excellent) | blood vessel, gallbladder, and gastrointestinal | +++ | +++ |
| O=C(O)CCN1C(=O)/C(=C\c2ccc3c(c2)C2CCCC2N3c2ccccc2)SC1=S (stereo not shown) [Dye 130] | 541 | 619 | 78 | +++ (rates of change of the absorbance and the fluorescence intensity are less than 5%, and thus, the storage stability is highly excellent) | blood vessel, liver, and gastrointestinal tract | +++ | +++ |
| COc1ccc(N2c3ccc(/C=C(/C#N)C(=O)O)cc3C3CCCC32)cc1 (stereo not shown) [Dye 131] | 440 | 580 | 140 | +++ (rates of change of the absorbance and the fluorescence intensity are less than 5%, and thus, the storage stability is highly excellent) | liver and gastrointestinal tract | +++ | +++ |
| C=CCN1C(=O)/C(=c2\s/c(=C/c3ccc4c(c3)C3CCCC3N4c3ccc(OC)cc3)c(=O)n2CC(=O)O)SC1=S (stereo not shown) [Dye 132] | 530 | 680 | 150 | +++ (rates of change of the absorbance and the fluorescence intensity are less than 5%, and thus, the storage stability is highly excellent) | blood vessel | +++ | +++ |

Second part, led by results:

| Excitation wavelength λex [2] [nm] | Fluorescence emission wavelength λem [2] [nm] | Stokes shift (λem − λex) [2] | Compound | Storage stability [1] | Site(s) to be labelled [3] | Fluorescence sensitivity [3] | Staining property [3] |
| --- | --- | --- | --- | --- | --- | --- | --- |
| 510 | 690 | 180 | C=CCN1C(=O)/C(=c2\s/c(=C/c3ccc4c(c3)C3CCCC3N4c3ccccc3)c(=O)n2CC(=O)O)SC1=S (stereo not shown) [Dye 133] | +++ (rates of change of the absorbance and the fluorescence intensity are less than 5%, and thus, the storage stability is highly excellent) | blood vessel | +++ | +++ |
| 440 | 600 | 160 | CSc1ccc(N2c3ccc(/C=C(/C#N)C(=O)O)cc3C3CCCC32)cc1 (stereo not shown) [Dye 134] | +++ (rates of change of the absorbance and the fluorescence intensity are less than 5%, and thus, the storage stability is highly excellent) | blood vessel | +++ | +++ |
| 430 | 600 | 170 | CSc1ccc(N2c3ccc(/C=C(/C#N)C(=O)O)cc3C3CCCC32)cc1 (stereo not shown) [Dye 135] | +++ (rates of change of the absorbance and the fluorescence intensity are less than 5%, and thus, the storage stability is highly excellent) | blood vessel | +++ | +++ |
| 560 | 760 | 200 | C[n+]1c(/C=c2\s/c(=C/c3ccc4c(c3)C3CCCC3N4c3ccc(C=C(c4ccccc4)c4ccccc4)cc3)c(=O)n2CC(=O)O)sc2ccccc21 (stereo not shown) [Dye 136] | +++ (rates of change of the absorbance and the fluorescence intensity are less than 5%, and thus, the storage stability is highly excellent) | gastrointestinal tract | +++ | +++ |
| 590 | 700 | 110 | CCn1c(=O)/c(=C\c2ccc3c(c2)C2CCCC2N3c2ccccc2)s/c1=C1/SC(=S)N(CC(=O)O)C1=O (stereo not shown) [Dye 137] | +++ (rates of change of the absorbance and the fluorescence intensity are less than 5%, and thus, the storage stability is highly excellent) | gallbladder and gastrointestinal tract | +++ | +++ |
| 540 | 690 | 150 | CCN1C(=O)/C(=c2\s/c(=C/c3ccc4c(c3)C3CCCC3N4c3cccc(SC)c3)c(=O)n2CC(=O)O)SC1=S (stereo not shown) [Dye 138] | +++ (rates of change of the absorbance and the fluorescence intensity are less than 5%, and thus, the storage stability is highly excellent) | gastrointestinal tract | +++ | +++ |
| 570 | 640 | 70 | CC[N+]1=C(C=c2s/c(=C/c3ccc4c(c3)C3CCCC3N4c3ccccc3)c(=O)n2CC(=O)O)C(C)(C)c2ccccc21 (stereo not shown) [Dye 139] | +++ (rates of change of the absorbance and the fluorescence intensity are less than 5%, and thus, the storage stability is highly excellent) | nose | +++ | +++ |
| 510 | 650 | 140 | O=C(O)CN1C(=O)/C(=C2C=C/C(=C\c3ccc4c(c3)C3CCCC3N4c3ccccc3)C\2)SC1=S (stereo not shown) [Dye 140] | +++ (rates of change of the absorbance and the fluorescence intensity are less than 5%, and thus, the storage stability is highly excellent) | gastrointestinal tract | +++ | +++ |
| 380 | 490 | 110 | O=C1/C(=C/c2ccc3c(c2)C2CCCC2N3c2ccccc2)Oc2ccc(I)cc21 (stereo not shown) [Dye 141] | +++ (rates of change of the absorbance and the fluorescence intensity are less than 5%, and thus, the storage stability is highly excellent) | gastrointestinal tract | +++ | +++ |
| 530 | 680 | 150 | COc1ccc(N2c3ccc(/C=C4\Oc5ccc(I)cc5C4=O)cc3C3CCCC32)cc1 (stereo not shown) [Dye 142] | +++ (rates of change of the absorbance and the fluorescence intensity are less than 5%, and thus, the storage stability is highly excellent) | gastrointestinal tract | +++ | +++ |

Reference: patent publication US9801960B2, “Probe for a biological specimen and labelling method and screening method using the probe” (CANON KABUSHIKI KAISHA, priority 2008, dated 2017)
